The target in the experiment is T1, α4β7 integrin (Homo sapiens, UniProt P13612+P26010).
T1 construct: monitoring the capture of α4β7 integrin expressing cells on a recombinant MadCAM-1 extracellular domain-coated plate; endogenous in cells; host or cells: RPMI8866 cells
T1 sequence (P13612 34-1032): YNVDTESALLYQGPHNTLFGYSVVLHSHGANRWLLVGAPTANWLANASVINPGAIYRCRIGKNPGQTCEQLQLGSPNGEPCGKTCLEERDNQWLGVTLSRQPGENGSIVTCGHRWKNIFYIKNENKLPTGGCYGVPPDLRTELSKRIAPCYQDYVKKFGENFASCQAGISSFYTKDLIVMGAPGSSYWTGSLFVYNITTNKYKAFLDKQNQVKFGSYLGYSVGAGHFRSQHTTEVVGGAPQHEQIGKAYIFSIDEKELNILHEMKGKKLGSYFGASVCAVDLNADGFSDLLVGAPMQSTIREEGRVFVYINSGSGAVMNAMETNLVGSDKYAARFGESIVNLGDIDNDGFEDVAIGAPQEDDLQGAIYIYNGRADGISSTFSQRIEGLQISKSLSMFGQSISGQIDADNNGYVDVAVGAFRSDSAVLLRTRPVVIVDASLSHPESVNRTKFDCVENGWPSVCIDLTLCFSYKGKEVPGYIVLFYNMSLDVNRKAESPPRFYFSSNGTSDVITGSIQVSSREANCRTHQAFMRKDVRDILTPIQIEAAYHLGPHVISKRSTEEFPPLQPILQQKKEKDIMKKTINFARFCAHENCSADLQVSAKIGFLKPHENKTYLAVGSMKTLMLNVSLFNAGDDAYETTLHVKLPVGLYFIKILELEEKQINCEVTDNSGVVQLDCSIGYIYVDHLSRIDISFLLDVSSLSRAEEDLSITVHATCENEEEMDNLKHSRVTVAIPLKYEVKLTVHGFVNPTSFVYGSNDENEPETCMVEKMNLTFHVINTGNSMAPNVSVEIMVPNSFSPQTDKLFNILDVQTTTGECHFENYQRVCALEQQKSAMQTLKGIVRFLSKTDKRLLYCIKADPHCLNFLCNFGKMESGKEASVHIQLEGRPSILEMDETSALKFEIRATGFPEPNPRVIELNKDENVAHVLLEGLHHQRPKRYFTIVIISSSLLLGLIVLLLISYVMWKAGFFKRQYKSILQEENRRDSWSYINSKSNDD
T1 sequence (P26010 20-798): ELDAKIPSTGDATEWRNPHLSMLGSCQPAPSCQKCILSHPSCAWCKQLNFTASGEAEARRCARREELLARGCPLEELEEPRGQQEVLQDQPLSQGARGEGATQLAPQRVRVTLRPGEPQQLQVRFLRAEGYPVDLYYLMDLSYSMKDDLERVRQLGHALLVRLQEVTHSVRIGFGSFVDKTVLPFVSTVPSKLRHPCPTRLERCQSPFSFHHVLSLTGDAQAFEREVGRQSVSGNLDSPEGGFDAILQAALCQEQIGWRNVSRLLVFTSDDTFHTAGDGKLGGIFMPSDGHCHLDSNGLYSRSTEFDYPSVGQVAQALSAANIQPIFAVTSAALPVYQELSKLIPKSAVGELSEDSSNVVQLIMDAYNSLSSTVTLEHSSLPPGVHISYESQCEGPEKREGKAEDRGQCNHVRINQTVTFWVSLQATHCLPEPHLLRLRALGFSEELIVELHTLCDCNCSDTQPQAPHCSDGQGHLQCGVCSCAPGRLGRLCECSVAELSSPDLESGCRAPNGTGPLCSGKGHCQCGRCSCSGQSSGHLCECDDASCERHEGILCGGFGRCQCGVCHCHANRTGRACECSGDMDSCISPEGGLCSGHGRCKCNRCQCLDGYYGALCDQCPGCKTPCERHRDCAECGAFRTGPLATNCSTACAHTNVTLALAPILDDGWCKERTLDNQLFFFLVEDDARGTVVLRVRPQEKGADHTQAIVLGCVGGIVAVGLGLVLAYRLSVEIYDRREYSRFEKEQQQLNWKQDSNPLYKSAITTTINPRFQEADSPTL
Put plainly: α4β7 Integrin Cell Capture Assay. The experiment is classed as cell-based. To be noted: capture of α4β7 integrin expressing RPMI8866 cells on recombinant MadCAM-1 extracellular domain-coated plate; DMEM+0.5% FBS+0.5 mM MnCl2; read-out: EC50 α4β7. On the procedure:
α4β7 Integrin Cell Capture Assay
The potency of inhibitors in preventing α4β7 integrin interaction with MadCAM-1 was measured by monitoring the capture of α4β7 integrin expressing cells on a recombinant MadCAM-1 extracellular domain-coated plate.
384-Well plates (Corning 3702) were coated with MadCAM-1 extracellular domain by dispensing 20 μL of MAdCAM-1 at 1.0 μg/mL per well and incubating overnight at 4° C. The plates were then washed with PBS and blocked with 3% BSA for 2 hours before being washed again.
RPMI8866 cells were spun down and re-suspended in assay medium (DMEM+0.5% FBS+0.5 mM MnCl2) at a density of 0.5×10^6 cells/mL. The cells were then dispensed (60 μL/well) to a 384-well plate (Greiner 781280) that was previously spotted with 60 nL of test compound per well. The plates were incubated at 37° C. for 1 hour. 50 μL of cells were transferred to the blocked, MadCAM-1-coated plates and incubated for 30 minutes at 37° C. 10 μL of 12% glutaraldehyde containing Hoechst 33342 (0.06 mg/mL) was added to the cells (2% glutaraldehyde and 0.01 mg/mL final concentrations). The plates were incubated for 90 minutes at room temperature. The plates were then washed 3 times with 70 μL of PBS per well and imaged on a Cellomics ArrayScan instrument. The cells that were bound to the plate were counted and plotted against the compound concentration to determine the EC50 of the test compounds.

We go through 21 compounds from US11179383B2 (Gilead Sciences, Inc., priority 2018, dated 2021).

In general, EC50 refers to the concentration at which the effect is half-maximal.

For the compound `CCOCc1cc(OC)c(-c2ccc(C[C@H](NC(=O)c3c(F)cc(NS(=O)(=O)c4ccc(-c5ccnc(F)c5)cc4)cc3F)C(=O)O)c3cnn(C)c23)c(OC)c1` (single isomer, unassigned) [Example 147], the 50% effective concentration (EC50) came to 0.4 nM.

For `CCOCc1cc(OC)c(-c2ccc(C[C@@H](NC(=O)c3c(F)cc(NS(=O)(=O)c4ccc(-c5ccnc(F)c5)cc4)cc3F)C(=O)O)c3cnn(C)c23)c(OC)c1` (single isomer, unassigned) [Example 148], the concentration giving a half-maximal response (EC50) was determined as 3.6 nM.

Take `CCOCc1cc(OC)c(-c2ccc(C[C@H](NC(=O)c3c(F)cc(NS(=O)(=O)c4ccc(-c5ccnc(F)c5)cc4)cc3F)C(=O)O)c3ccncc23)c(OC)c1` (single isomer, unassigned) [Example 161]: the EC50 came to 0.5 nM.

For `CCOCc1cc(OC)c(-c2ccc(C[C@@H](NC(=O)c3c(F)cc(NS(=O)(=O)c4ccc(-c5ccnc(F)c5)cc4)cc3F)C(=O)O)c3ccncc23)c(OC)c1` (single isomer, unassigned) [Example 162], the EC50 stood at 1.7 nM.

As for `COc1cccc(OC)c1-c1ccc(C[C@H](NC(=O)c2c(F)cc(NS(=O)(=O)c3ccc(-n4cncn4)cc3)cc2F)C(=O)O)c2ccncc12` (single isomer, unassigned) [Example 164], the EC50 was 1.3 nM.

Consider `COc1cccc(OC)c1-c1ccc(C[C@@H](NC(=O)c2c(F)cc(NS(=O)(=O)c3ccc(-n4cncn4)cc3)cc2F)C(=O)O)c2ccncc12` (single isomer, unassigned) [Example 165], for which the half-maximal effective concentration (EC50) was found to be 37.8 nM.

For the compound `O=C(N[C@@H](Cc1ccc(-c2c(Cl)cc(F)cc2Cl)c2cccnc12)C(=O)O)c1c(F)cccc1F` [Example 1, (S)-3-(5-(2,6-dichloro-4-fluorophenyl)quinolin-8-yl)-2-(2,6-difluorobenzamido)propanoic acid], the EC50 worked out at 210 nM.

In the case of `COc1cccc(F)c1C(=O)N[C@@H](Cc1ccc(-c2c(Cl)cc(F)cc2Cl)c2cccnc12)C(=O)O` [Example 2, (S)-3-(5-(2,6-dichloro-4-fluorophenyl)quinolin-8-yl)-2-(2-fluoro-6-methoxybenzamido)propanoic acid], the half-maximal effective concentration (EC50) is 417 nM.

Consider `O=C(N[C@@H](Cc1ccc(-c2c(Cl)cc(F)cc2Cl)c2cccnc12)C(=O)O)c1c(F)cc(N[C@H](c2ccccc2)C(F)(F)F)cc1F` [Example 3, (S)-3-(5-(2,6-dichloro-4-fluorophenyl)quinolin-8-yl)-2-(2,6-difluoro-4-(((R)-2,2,2-trifluoro-1-phenylethyl)amino)benzamido)propanoic acid], for which the half-maximal effective concentration (EC50) is 393 nM.

For the compound `CS(=O)(=O)Nc1cc(F)c(C(=O)N[C@@H](Cc2ccc(-c3c(Cl)cc(F)cc3Cl)c3cccnc23)C(=O)O)c(F)c1` [Example 4, (S)-3-(5-(2,6-dichloro-4-fluorophenyl)quinolin-8-yl)-2-(2,6-difluoro-4-(methylsulfonamido)benzamido)propanoic acid], the EC50 came to 26 nM.

`O=C(N[C@@H](Cc1ccc(-c2c(Cl)cc(F)cc2Cl)c2cccnc12)C(=O)O)c1c(Cl)cccc1Cl` [Example 7, (S)-3-(5-(2,6-dichloro-4-fluorophenyl)quinolin-8-yl)-2-(2,6-dichlorobenzamido)propanoic acid]: the concentration giving a half-maximal response (EC50) amounted to 522 nM.

In the case of `Cc1c(-c2ccc(C[C@H](NC(=O)c3c(Cl)cccc3Cl)C(=O)O)c3ncccc23)c(=O)n(C)c2ccc(F)cc12` [Example 10, (S)-2-(2,6-dichlorobenzamido)-3-(6-fluoro-1,4-dimethyl-2-oxo-1,2-dihydro-[3,5′-biquinolin]-8′-yl)propanoic acid], the EC50 turned out to be 1.1 nM.

Take `COc1cc(F)cnc1-c1ccc(C[C@H](NC(=O)c2c(Cl)cccc2Cl)C(=O)O)c2ncccc12` [Example 13, (S)-2-(2,6-dichlorobenzamido)-3-(5-(5-fluoro-3-methoxypyridin-2-yl)quinolin-8-yl)propanoic acid]: the 50% effective concentration (EC50) came out at 66.9 nM.

On to `O=C(N[C@@H](Cc1ccc(-c2cccc3scnc23)c2cccnc12)C(=O)O)c1c(Cl)cccc1Cl` [Example 14, (S)-3-(5-(benzo[d]thiazol-4-yl)quinolin-8-yl)-2-(2,6-dichlorobenzamido) propanoic acid], for which the half-maximal effective concentration (EC50) was 57.7 nM.

Regarding `O=C(N[C@@H](Cc1ccc(-c2nccnc2C(F)(F)F)c2cccnc12)C(=O)O)c1c(Cl)cccc1Cl` [Example 15, (S)-2-(2,6-dichlorobenzamido)-3-(5-(3-(trifluoromethyl)pyrazin-2-yl)quinolin-8-yl)propanoic acid], the EC50 stood at 85 nM.

With `Cc1cc(C(F)(F)F)c(-c2ccc(C[C@H](NC(=O)c3c(Cl)cccc3Cl)C(=O)O)c3ncccc23)nn1` [Example 16, (S)-2-(2,6-dichlorobenzamido)-3-(5-(6-methyl-4-(trifluoromethyl)pyridazin-3-yl)quinolin-8-yl)propanoic acid], the EC50 turned out to be 144 nM.

In the case of `Cn1cc(-c2ccc(C[C@H](NC(=O)c3c(Cl)cccc3Cl)C(=O)O)c3ncccc23)c(C(F)(F)F)n1` [Example 17, (S)-2-(2,6-dichlorobenzamido)-3-(5-(1-methyl-3-(trifluoromethyl)-1H-pyrazol-4-yl)quinolin-8-yl)propanoic acid], the EC50 worked out at 356 nM.

Turning to `Cc1c(-c2ccc(C[C@H](NC(=O)c3c(Cl)cccc3Cl)C(=O)O)c3ncccc23)c(C(F)(F)F)nn1C` [Example 18, (S)-2-(2,6-dichlorobenzamido)-3-(5-(1,5-dimethyl-3-(trifluoromethyl)-1H-pyrazol-4-yl)quinolin-8-yl)propanoic acid], the concentration giving a half-maximal response (EC50) was 416 nM.

With `Cn1cc(F)cc(-c2ccc(C[C@H](NC(=O)c3c(Cl)cccc3Cl)C(=O)O)c3ncccc23)c1=O` [Example 19, (S)-2-(2,6-dichlorobenzamido)-3-(5-(5-fluoro-1-methyl-2-oxo-1,2-dihydropyridin-3-yl)quinolin-8-yl)propanoic acid], the concentration giving a half-maximal response (EC50) is 26.3 nM.

For the compound `O=C(N[C@@H](Cc1ccc(-c2cccc3c2COCC3)c2cccnc12)C(=O)O)c1c(Cl)cccc1Cl` [Example 20, (S)-2-(2,6-dichlorobenzamido)-3-(5-(isochroman-8-yl)quinolin-8-yl)propanoic acid], the EC50 worked out at 374 nM.

For the compound `Cn1c(=O)c(-c2ccc(C[C@H](NC(=O)c3c(Cl)cccc3Cl)C(=O)O)c3ncccc23)cc2ccccc21` [Example 21, (S)-2-(2,6-dichlorobenzamido)-3-(1-methyl-2-oxo-1,2-dihydro-[3,5′-biquinolin]-8′-yl)propanoic acid], the EC50 was determined as 5.8 nM.
